Assay results: PMC6972920, “Structure-based development of caged dopamine D2/D3 receptor antagonists” (Scientific Reports, 2020)
“Also recorded” adds a separate entry of the source. Like-named read-outs stand apart in the source and are kept apart here.

Assays:
[1] = target: T1, human adrenergic α2A receptor (Homo sapiens, UniProt P08913); assay: Competition binding, [3H]RX821002, HEK293T membranes
T1 construct: expressed in transfected cells; host or cells: HEK293T cells, transient transfection
T1 sequence (P08913 1-465): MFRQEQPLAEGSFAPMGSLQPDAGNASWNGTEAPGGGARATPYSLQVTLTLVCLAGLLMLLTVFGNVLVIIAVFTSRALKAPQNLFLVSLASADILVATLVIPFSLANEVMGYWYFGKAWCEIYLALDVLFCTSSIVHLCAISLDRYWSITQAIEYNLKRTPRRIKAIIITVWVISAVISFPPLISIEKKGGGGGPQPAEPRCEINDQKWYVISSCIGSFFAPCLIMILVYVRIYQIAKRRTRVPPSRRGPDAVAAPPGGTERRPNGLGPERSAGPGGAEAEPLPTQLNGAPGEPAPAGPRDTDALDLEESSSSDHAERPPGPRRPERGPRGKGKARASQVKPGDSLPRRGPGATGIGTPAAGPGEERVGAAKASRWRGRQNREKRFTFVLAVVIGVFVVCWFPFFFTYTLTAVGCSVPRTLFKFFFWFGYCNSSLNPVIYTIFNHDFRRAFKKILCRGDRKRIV

[2] = target: T2, human dopamine receptor subtype D4.4 (Homo sapiens, UniProt P21917); assay: Radioligand displacement, [3H]spiperone, CHO cell membranes; type: binding
T2 sequence (P21917 1-419): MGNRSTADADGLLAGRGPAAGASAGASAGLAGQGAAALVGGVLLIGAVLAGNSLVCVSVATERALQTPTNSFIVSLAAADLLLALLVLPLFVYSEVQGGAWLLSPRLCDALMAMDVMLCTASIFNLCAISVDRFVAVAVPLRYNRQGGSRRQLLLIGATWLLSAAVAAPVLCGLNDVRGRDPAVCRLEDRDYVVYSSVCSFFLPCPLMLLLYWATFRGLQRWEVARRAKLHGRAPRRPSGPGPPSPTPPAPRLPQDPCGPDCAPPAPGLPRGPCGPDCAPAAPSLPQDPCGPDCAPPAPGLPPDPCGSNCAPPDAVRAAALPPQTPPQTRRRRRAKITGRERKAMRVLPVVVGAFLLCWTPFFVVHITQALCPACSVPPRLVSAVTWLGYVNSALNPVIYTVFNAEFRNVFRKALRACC

[3] = Compound stability and photolysis in aqueous buffer monitored by HPLC; type: physicochemical; settings: for behaviour upon illumination with λp = 365 nm (in words): aqueous buffer, LED 365 nm, HPLC; for stability in the absence of light (in words): dark, storage and solution, HPLC/LCMS
Protocol: All measurements were performed in aqueous buffer solution. Compound stability and photolysis was monitored by HPLC. […] Excitation of NB- and DMNB-type cages to trigger photolysis is usually performed with light of 300–400 nm. This absorption profile may limit the wavelength range for cage photolysis, as simultaneous excitation of the core pharmacophore may trigger photolytic degradation of the desired product. We performed photolysis experiments using a near UV light-emitting diode (LED) light source with a peak wavelength of λp = 365 nm and a spectrum half width of Δλ = 9 nm.
No unspecific degradation of the pharmacophore was observed, resulting in constant concentration of the desired product. […] The exposure to ambient light for longer time led to partial photolytic degradation. After incubation in aqueous buffer at ambient light for 1 h, we detected remaining 51% and 62% of the initial concentrations of 4 (MG307) and 5, respectively.
For compound characterization, UV/Vis absorption spectra of samples with c = 0.1 mM in methanol were measured on an Analytik Jena Specord 200 Plus spectrometer (λ = 210–400 nm). Irradiation experiments to trigger photolysis were performed in open HPLC glass vials using a LED (λ = 365 nm, 4.5 V, 0.7 A) to irradiate the samples from top. An aqueous buffer solution served as solvent (50 mM Tris, 1 mM EDTA, 50 mM MgCl2, 100 µg/ml bacitracin, 5 µg/ml soybean trypsin inhibitor), with initial sample concentrations of […] and sample volumes of 100 µl. Photolysis was monitored by HPLC as specified before (eluent system 1). […] Unless specified differently, all experiments were performed in triplicate.

[4] = target: human dopamine receptor subtype D2L (Homo sapiens, UniProt P14416); assay: Radioligand displacement, [3H]spiperone, CHO cell membranes; type: binding
human dopamine receptor subtype D2L, sequence (P14416 whole entry): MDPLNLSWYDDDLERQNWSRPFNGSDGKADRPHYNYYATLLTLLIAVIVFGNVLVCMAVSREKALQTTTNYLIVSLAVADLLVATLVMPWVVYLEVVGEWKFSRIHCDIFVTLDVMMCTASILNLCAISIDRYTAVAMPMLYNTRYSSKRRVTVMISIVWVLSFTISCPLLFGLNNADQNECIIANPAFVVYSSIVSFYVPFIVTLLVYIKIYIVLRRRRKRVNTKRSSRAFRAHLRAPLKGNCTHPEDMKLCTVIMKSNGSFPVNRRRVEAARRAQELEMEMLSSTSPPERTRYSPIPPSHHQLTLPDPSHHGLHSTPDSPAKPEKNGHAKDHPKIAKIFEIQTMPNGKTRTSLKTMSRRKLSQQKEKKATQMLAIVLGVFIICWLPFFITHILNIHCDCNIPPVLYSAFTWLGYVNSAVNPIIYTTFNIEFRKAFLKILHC

[5] = target: human dopamine receptor subtype D2S (Homo sapiens, UniProt P14416); assay: as above; type: binding
human dopamine receptor subtype D2S, sequence (P14416 1-414 isoform P14416-2): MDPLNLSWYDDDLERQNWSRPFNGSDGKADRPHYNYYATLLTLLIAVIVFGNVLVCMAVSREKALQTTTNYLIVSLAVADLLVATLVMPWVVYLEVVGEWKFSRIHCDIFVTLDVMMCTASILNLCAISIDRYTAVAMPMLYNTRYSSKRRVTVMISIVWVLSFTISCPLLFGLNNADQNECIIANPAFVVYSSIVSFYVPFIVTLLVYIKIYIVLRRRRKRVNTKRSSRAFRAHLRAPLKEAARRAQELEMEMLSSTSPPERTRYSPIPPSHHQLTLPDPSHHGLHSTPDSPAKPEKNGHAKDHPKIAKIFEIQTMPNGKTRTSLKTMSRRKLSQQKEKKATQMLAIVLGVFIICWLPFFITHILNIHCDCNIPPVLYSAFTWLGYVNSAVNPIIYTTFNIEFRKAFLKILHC

[6] = target: human dopamine receptor subtype D3 (Homo sapiens, UniProt P35462); assay: as above; type: binding; settings: mean ± SEM of 4-9 experiments, compounds 1, 2, 3: ± SD of two experiments
human dopamine receptor subtype D3, sequence (P35462 whole entry): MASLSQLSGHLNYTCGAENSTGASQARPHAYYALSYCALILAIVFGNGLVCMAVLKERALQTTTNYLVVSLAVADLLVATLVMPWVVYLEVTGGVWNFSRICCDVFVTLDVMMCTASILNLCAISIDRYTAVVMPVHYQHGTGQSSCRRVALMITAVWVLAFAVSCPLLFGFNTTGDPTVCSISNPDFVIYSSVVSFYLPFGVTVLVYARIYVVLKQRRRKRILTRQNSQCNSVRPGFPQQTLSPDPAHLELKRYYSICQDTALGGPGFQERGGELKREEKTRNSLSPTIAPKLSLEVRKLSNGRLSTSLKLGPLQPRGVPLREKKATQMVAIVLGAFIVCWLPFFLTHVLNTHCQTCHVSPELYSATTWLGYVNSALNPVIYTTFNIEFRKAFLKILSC

[7] = target: all dopamine receptor subtypes; assay: Radioligand binding, text summary over all dopamine receptor subtypes tested; set-up: species or system human; settings: range over D2L, D2S, D3, D4.4, stated in text; read-out: Ki values towards all dopamine receptor subtypes (range)
[8] = target: T3, dopamine D2S receptor co-expressed with hybrid Gαqi in HEK293T cells (Homo sapiens, UniProt P14416); assay: IP accumulation assay (IP-One HTRF), agonist / inverse agonist effect; type: cell-based
T3 construct: expressed in transfected cells; host or cells: HEK-293T cells, transient co-transfection
T3 sequence (P14416 1-414 isoform P14416-2): as the sequence (P14416 1-414 isoform P14416-2) above

[9] = target: T3, dopamine D2S receptor co-expressed with hybrid Gαqi in HEK293T cells; assay: IP accumulation assay (IP-One HTRF), inhibition of 10 nM quinpirole; type: cell-based
[10] = target: T4, D2S receptor (HEK293T cells co-transfected with D2S and Gαqi) (Homo sapiens, UniProt P14416); assay: Illumination experiment: test compound solution irradiated at 365 nm before addition to cells, quinpirole stimulated IP accumulation; type: cell-based; settings: controls; 10 nM quinpirole
T4 construct: expressed in transfected cells; host or cells: HEK-293T cells, transient co-transfection
T4 sequence (P14416 1-414 isoform P14416-2): as above
From the text: […]. Mean curves ± SEM of 4–9 individual curves each done in triplicates. […]. Mean curves from 3–4 experiments each done in duplicate. […]. While 4 (MG307) (green bars) is completely released after 10 sec, the uncaging of 5 (red bars) needs 20 sec. […]. Mean bars ± SEM derived from 3–11 individual experiments each done in quintuplicates. Irradiation with a solution of test compound before addition to the cellular test system. […]. Means ± SEM from 6 experiments in quintuplicates.
[…]. Actually, we observed an onset of a strong inverse agonist effect on quinpirole-induced IP accumulation after irradiation of the nitrobenzyl-caged compound 4 (MG307). […] […]. […] To complement uncaging of the test compounds by irradiation of the test compounds before addition to receptor by a biologically more significant experiment, we investigated whether uncaging can also be accomplished directly in the cellular system. […] In fact, quinpirole-promoted IP accumulation was substantially attenuated after irradiation for 10 or 20 sec. […] […]. […] […].
HEK293T cells were transiently co-transfected with D2S and Gαqi. Solutions of the test compounds were irradiated at λ = 365 nm using the same LED as for the photochemistry experiments (see above) for 2, 5, 10 or 20 sec and the test compound was added to the cell system immediately after illumination. […]. Accumulation of IP was determined as described above. […]. Basal activity (buffer) was set as 0%. As a control, quinpirole was irradiated for 20 sec without observing any difference to the effect of the untreated analog. […]. All irradiation experiments were carried out in the dark or under dim light.

[11] = target: T5, human dopamine D1 receptor (Homo sapiens, UniProt P21728); assay: Competition binding, [3H]SCH23390, HEK293T membranes
T5 construct: expressed in transfected cells; host or cells: HEK293T cells, transient transfection
T5 sequence (P21728 whole entry): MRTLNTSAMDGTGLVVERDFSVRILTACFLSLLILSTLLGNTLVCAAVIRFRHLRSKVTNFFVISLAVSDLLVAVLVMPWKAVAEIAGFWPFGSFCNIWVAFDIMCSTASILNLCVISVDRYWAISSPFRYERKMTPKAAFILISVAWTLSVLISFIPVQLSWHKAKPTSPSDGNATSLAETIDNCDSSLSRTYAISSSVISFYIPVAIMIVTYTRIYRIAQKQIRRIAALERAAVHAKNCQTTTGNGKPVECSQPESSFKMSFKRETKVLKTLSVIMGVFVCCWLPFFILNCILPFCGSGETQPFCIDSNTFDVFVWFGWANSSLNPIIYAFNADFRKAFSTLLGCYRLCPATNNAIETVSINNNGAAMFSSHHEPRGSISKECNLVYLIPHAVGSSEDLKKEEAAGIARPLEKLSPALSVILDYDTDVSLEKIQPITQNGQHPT

[12] = target: T6, human dopamine D5 receptor (Homo sapiens, UniProt P21918); assay: as above
T6 construct: expressed in transfected cells; host or cells: HEK293T cells, transient transfection
T6 sequence (P21918 whole entry): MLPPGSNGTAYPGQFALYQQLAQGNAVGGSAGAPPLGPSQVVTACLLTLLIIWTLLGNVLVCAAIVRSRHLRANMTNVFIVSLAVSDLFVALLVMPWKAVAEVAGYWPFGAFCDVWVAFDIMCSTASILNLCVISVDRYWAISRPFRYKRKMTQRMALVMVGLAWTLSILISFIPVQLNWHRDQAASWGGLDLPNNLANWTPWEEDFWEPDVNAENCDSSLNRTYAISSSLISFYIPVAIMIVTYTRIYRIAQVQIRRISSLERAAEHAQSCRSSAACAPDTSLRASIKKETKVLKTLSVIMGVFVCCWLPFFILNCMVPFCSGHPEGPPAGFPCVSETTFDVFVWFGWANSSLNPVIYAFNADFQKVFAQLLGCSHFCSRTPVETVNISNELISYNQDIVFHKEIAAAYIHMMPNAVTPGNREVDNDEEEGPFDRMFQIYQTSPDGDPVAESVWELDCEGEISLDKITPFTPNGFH

[13] = target: T7, human serotonin 5-HT1A receptor (Homo sapiens, UniProt P08908); assay: Competition binding, [3H]WAY600135, HEK293T membranes; settings: ± SD of two experiments
T7 construct: expressed in transfected cells; host or cells: HEK293T cells, transient transfection
T7 sequence (P08908 1-422): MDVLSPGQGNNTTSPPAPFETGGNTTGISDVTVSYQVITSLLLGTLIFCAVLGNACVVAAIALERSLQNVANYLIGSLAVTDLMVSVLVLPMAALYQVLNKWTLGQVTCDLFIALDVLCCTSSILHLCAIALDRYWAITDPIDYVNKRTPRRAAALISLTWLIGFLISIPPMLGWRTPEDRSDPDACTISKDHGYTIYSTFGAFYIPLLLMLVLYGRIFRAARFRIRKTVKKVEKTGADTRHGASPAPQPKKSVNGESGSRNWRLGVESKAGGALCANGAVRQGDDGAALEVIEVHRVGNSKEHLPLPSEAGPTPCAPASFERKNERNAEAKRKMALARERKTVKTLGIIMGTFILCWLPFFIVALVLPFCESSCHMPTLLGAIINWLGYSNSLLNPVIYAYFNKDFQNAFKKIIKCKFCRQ

[14] = target: T8, human serotonin 5-HT2A receptor (Homo sapiens, UniProt P28223); assay: Competition binding, [3H]ketanserin, HEK293T membranes; settings: ± SD of two experiments
T8 construct: expressed in transfected cells; host or cells: HEK293T cells, transient transfection
T8 sequence (P28223 whole entry): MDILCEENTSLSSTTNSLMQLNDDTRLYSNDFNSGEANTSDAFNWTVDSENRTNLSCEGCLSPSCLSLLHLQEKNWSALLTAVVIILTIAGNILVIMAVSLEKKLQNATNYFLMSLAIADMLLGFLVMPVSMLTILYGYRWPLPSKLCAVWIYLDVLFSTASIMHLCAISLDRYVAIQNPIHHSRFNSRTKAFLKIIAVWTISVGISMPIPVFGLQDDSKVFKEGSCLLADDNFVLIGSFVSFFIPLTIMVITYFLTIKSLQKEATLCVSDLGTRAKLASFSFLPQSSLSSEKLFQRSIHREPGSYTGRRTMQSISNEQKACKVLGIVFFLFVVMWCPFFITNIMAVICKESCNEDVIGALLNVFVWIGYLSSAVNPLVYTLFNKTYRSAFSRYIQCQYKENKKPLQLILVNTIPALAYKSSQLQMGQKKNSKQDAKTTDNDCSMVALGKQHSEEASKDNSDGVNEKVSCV

[15] = target: T9, human adrenergic α1A receptor (Homo sapiens, UniProt P35348); assay: Competition binding, [3H]prazosin, HEK293T membranes; settings: ± SD of two experiments
T9 construct: expressed in transfected cells; host or cells: HEK293T cells, transient transfection
T9 sequence (P35348 1-466): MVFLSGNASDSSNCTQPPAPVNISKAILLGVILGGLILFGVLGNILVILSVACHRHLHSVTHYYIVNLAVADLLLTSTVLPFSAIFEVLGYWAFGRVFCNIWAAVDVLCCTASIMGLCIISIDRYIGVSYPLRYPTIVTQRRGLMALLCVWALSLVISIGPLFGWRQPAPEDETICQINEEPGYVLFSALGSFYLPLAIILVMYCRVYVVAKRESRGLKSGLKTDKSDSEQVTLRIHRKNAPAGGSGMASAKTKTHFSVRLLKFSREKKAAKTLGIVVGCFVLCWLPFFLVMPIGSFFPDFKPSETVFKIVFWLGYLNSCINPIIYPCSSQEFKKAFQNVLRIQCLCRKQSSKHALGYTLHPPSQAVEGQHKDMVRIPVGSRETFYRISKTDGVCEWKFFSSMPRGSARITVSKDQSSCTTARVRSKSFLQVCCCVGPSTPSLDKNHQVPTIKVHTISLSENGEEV

[16] = target: T10, human adrenergic β2 receptor (Homo sapiens, UniProt P07550); assay: Competition binding, [3H]CGP12177, HEK293T membranes; settings: ± SD of two experiments
T10 construct: expressed in transfected cells; host or cells: HEK293T cells, transient transfection
T10 sequence (P07550 whole entry): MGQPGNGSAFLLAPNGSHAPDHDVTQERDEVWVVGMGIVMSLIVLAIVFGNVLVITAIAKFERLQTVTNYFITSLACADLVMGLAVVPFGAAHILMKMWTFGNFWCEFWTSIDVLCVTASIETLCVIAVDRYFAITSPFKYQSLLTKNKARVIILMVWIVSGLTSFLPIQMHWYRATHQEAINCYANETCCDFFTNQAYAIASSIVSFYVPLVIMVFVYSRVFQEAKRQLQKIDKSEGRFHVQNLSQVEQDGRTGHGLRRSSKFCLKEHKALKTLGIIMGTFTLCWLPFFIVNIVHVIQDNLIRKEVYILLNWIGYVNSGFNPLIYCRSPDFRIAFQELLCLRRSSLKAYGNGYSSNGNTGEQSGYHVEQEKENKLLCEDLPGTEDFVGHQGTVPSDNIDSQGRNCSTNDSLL

D2 and D3 receptors = assay: Radioligand binding, summary over D2 and D3 subtypes; set-up: species or system human; settings: range over D2L, D2S, D3, stated in text
[17] = [3H]spiperone, mean ± SEM of 4-9 experiments, compounds 1, 2, 3: ± SD of two experiments, read-out: Ki value D4.4
[18] = [3H]spiperone, mean ± SEM of 4-9 experiments, compounds 1, 2, 3: ± SD of two experiments, read-out: Ki value D2L
[19] = [3H]spiperone, mean ± SEM of 4-9 experiments, compounds 1, 2, 3: ± SD of two experiments, read-out: Ki value D2S

## COC1(C2=NCCN2)COc2ccccc2O1 (centres unmarked) [[^3H]RX801002]
[1]; HEK293T membranes, read-out: KD of radioligand for α2A
  Kd: 0.29 nM

## CCc1cc(Cl)c(OC)c(C(=O)NC[C@@H]2CCCN2CC)c1OCc1ccccc1[N+](=O)[O-] [compound 1]
[2]; [17]
  Ki: 2800 ± 1200 nM
[3]
  behaviour upon illumination with λp = 365 nm (in words): complete photolysis after seconds of irradiation
  stability in the absence of light (in words): not fully stable and slowly decomposed to liberate eticlopride even in the absence of light

## CCc1cc(Cl)c(OC)c(C(=O)NC[C@@H]2CCCN2CC)c1OCc1cc(OC)c(OC)cc1[N+](=O)[O-] [compound 2]
[3]
  behaviour upon illumination with λp = 365 nm (in words): Rapid photolytic degradation
  stability in the absence of light (in words): not fully stable and slowly decomposed to liberate eticlopride even in the absence of light

## CCc1cc(Cl)c(OC)c(C(=O)NC[C@@H]2CCCN2CC)c1OCc1ccccc1 [compound 3]
[4]; [18]
  Ki: 4800 ± 3500 nM
[5]; [19]
  Ki: 6200 ± 3500 nM
[6]
  Ki: 5600 ± 5400 nM
[7]
  Ki: 4800 to 22000 nM

## CCc1ccc(OC)c(C(=O)NC[C@@H]2CCCN2CC)c1OCc1ccccc1 [compound 6]
[4]; [18]
  Ki: 1300 ± 250 nM
[5]; [19]
  Ki: 510 ± 120 nM
[6]
  Ki: 480 ± 120 nM
[2]; [17]
  Ki: 7700 ± 1100 nM
[8]; D2S receptors
  functional properties in IP accumulation assay (in words): inverse agonist properties were observed as well, but potency was low
[8]; HEK-293T, relative to full effect of quinpirole (100%) and buffer (0%)
  Emax: -22 ± 1.8%
[8]; IP accumulation, ± SEM, 3-8 experiments, negative Emax = inverse agonist effect
  EC50: 480 ± 310 nM
[9]; HEK-293T, in presence of 10 nM quinpirole, relative to quinpirole (100%) and buffer (0%), read-out: inhibitory effect Emax
  Emax: -17 ± 9.8%
[9]; blocking of the agonist effect of 10 nM quinpirole, ± SEM, 4-6 experiments, read-out: inhibitory effect IC50
  IC50: 5500 ± 2900 nM
[10]
  effect of irradiation at 365 nm for 20 sec on the compound's effect on IP accumulation (in words): does not affect; also recorded: no significant effect

## CCc1cc(Cl)c(OC)c(C(=O)NC[C@@H]2CCCN2CC)c1O [eticlopride]
[4]
  Ki: 0.25 ± 0.062 nM
[5]
  Ki: 0.28 ± 0.03 nM
[2]
  Ki: 120 ± 19 nM
[11]
  Ki: 23000 ± 5800 nM
[12]
  Ki: 46000 ± 1100 nM
[13]
  Ki: 570 ± 250 nM
[14]
  Ki: 220 ± 23 nM
[15]
  Ki: 81 ± 2.1 nM
[1]; [3H]RX821002, ± SD of two experiments
  Ki: 66 ± 19 nM
[16]
  Ki: 4900 ± 210 nM
D2 and D3 receptors
  Ki: 0.21 to 0.28 nM
[3]
  behaviour upon illumination with λp = 365 nm (in words): fast decomposition rate towards light with λp = 365 nm
